# Key:
# Ex vivo biodistribution = format: in vivo, rat; conditions: for brain uptake: i.v.
# Procedure: (§1) Animal experiments were conducted under the UK Animals (Scientific Procedures) Act 1986. This work was approved by the ethical review committee at the University of Glasgow (PPL: 60/3436) prior to the start of study. Naïve male Sprague-Dawley rats (Harlan, UK), weighing 217 to 352 g were either conscious or anaesthetised (2.5–3% isoflurane via a tracheostomy and artificial ventilation in 70/30% N2O/O2) for the duration of the experiment. Anaesthetised rats had their respiration and temperature monitored throughout. [^125I]WYE-230949 was administered via a femoral vein cannula to anaesthetised rats or via the lateral tail vein to conscious rats. The injected dose for each rat was calculated by measuring the syringe in a dose calibrator before and after [^125I]WYE-230949 administration. The radioactive and radiochemical amounts administered to individual rats ranged from 12.6 to 24.5 MBq and 0.32 to 0.70 µg/kg respectively in all in vivo studies.
# Ex vivo biodistribution studies were performed in both conscious and anaesthetised rats in order to investigate the effect of anaesthesia on [^125I]WYE-230949 uptake. At 30 or 120 min following [^125I]WYE-230949 administration rats were killed by cervical dislocation. These time points were chosen based on the biological half life of [^125I]WYE-230949 determined from microSPECT imaging studies. Serial arterial blood sampling via a femoral artery cannula was performed in anaesthetised rats only. Blood was collected into heparin-coated tubes for analysis of plasma and into EDTA coated tubes for analysis of whole blood. At either 30 or 120 min following [^125I]WYE-230949 administration rats were killed by cervical dislocation and the brain, heart, lungs, kidneys and liver dissected. Samples were counted on a Gamma Scintillation Counter (Packard Cobra II D5010, UK) and counts per minute (cpm) converted to kBq using a standard curve. Radioactivity was corrected for decay of ^125I and expressed per sample weight and as a percentage of injected dose (%ID/g tissue).
# histamine H3 receptor = biological target: T1, histamine H3 receptor (Rattus norvegicus, UniProt Q9QYN8); assay: Ex vivo autoradiography (target to cerebellum ratios); format: in vivo
# T1 construct: Sections (20 µm) cut from a frozen rat brain were pre-incubated in Tris-HCl buffer; from tissue
# T1 sequence (Q9QYN8 whole entry): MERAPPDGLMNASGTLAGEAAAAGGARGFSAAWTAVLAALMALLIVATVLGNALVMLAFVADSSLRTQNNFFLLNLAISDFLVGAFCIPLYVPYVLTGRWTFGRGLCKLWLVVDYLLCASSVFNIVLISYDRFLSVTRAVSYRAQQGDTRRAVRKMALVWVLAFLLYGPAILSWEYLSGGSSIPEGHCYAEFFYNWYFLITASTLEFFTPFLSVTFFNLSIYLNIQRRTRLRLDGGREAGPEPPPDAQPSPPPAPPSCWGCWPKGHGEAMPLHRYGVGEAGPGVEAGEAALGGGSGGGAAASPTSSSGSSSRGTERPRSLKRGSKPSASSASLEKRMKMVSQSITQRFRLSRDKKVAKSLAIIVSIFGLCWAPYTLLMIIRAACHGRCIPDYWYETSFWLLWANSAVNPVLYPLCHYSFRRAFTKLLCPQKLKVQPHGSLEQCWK
# Procedure: as §1
# Regional brain uptake was determined by ex vivo autoradiography, studies were performed in both conscious and anaesthetised rats in order to investigate the effect of anaesthesia on [^125I]WYE-230949 uptake. At either 30 or 120 min following [^125I]WYE-230949 administration rats were killed by cervical dislocation. The brains were removed, frozen in isopentane at −42°C and stored at −20°C before sectioning (20 µm) in a cryostat (Bright Instrument Company Ltd). Three sections were taken every 400 µm for the entire length of the rat brain and thaw mounted onto poly-L-lysine coated slides. Sections were dried at room temperature and apposed to X-ray film (Kodak Biomax MR-1) for approximately 2 weeks. The resultant autoradiograms were analysed using computer-based densitometry (MCID, Imaging Research, Canada). Relative optical density (ROD) measurements were obtained from 14 ROIs defined with reference to a rat brain atlas. For each brain region examined, bilateral readings were obtained in triplicate and the average reading determined. ROD values in the cerebellum were used as a measure of non-specific binding. Specific binding was calculated as ROD in ROI/ROD in cerebellum.
smiles,measurement,setting,value
O=C(c1ccc(Cn2cnc3cccc([125I])c32)cc1)N1CC[C@H](N2CCCC2)C1 [[^125I]WYE-230949],brain uptake,"Ex vivo biodistribution; 30 min, anaesthetised rats",0.11 %ID/g
same,brain uptake,"Ex vivo biodistribution; 30 min, conscious rats",0.06±0.01 %ID/g
same,brain uptake,"Ex vivo biodistribution; 120 min, anaesthetised rats",0.06±0.01 %ID/g
same,brain uptake,"Ex vivo biodistribution; 120 min, conscious rats",0.03±0.003 %ID/g
same,peak radioactivity in plasma,"Ex vivo biodistribution; anaesthetised rats, n = 6",4.04±1.14 %ID/g of tissue
same,peak radioactivity in whole blood,"Ex vivo biodistribution; anaesthetised rats, n = 6",3.14±0.26 %ID/g of tissue
same,time of peak radioactivity in plasma,"Ex vivo biodistribution; anaesthetised rats, n = 6",0.38 ± 0.02 min
same,time of peak radioactivity in whole blood,"Ex vivo biodistribution; anaesthetised rats, n = 6",0.50 ± 0.03 min
same,Target to cerebellum ratio,"histamine H3 receptor; Amygdala, 30 min, anaesthetised",1.10±0.02
same,Target to cerebellum ratio,"histamine H3 receptor; Amygdala, 30 min, conscious",1.12±0.04
same,Target to cerebellum ratio,"histamine H3 receptor; Amygdala, 120 min, anaesthetised",1.16±0.03
same,Target to cerebellum ratio,"histamine H3 receptor; Amygdala, 120 min, conscious",1.26±0.03
same,Target to cerebellum ratio,"histamine H3 receptor; Anterior Cortex, 30 min, anaesthetised",1.09±0.03
same,Target to cerebellum ratio,"histamine H3 receptor; Anterior Cortex, 30 min, conscious",1.15 ± 0.02
same,Target to cerebellum ratio,"histamine H3 receptor; Anterior Cortex, 120 min, anaesthetised",1.10±0.02
same,Target to cerebellum ratio,"histamine H3 receptor; Anterior Cortex, 120 min, conscious",1.16±0.02
same,Target to cerebellum ratio,"histamine H3 receptor; Caudate Putamen, 30 min, anaesthetised",1.13±0.03
same,Target to cerebellum ratio,"histamine H3 receptor; Caudate Putamen, 30 min, conscious",1.17±0.03
same,Target to cerebellum ratio,"histamine H3 receptor; Caudate Putamen, 120 min, anaesthetised",1.20±0.04
same,Target to cerebellum ratio,"histamine H3 receptor; Caudate Putamen, 120 min, conscious",1.32±0.04
same,Target to cerebellum ratio,"histamine H3 receptor; Choroid Plexus, 30 min, anaesthetised",1.73±0.06
same,Target to cerebellum ratio,"histamine H3 receptor; Choroid Plexus, 30 min, conscious",2.68±0.04
same,Target to cerebellum ratio,"histamine H3 receptor; Choroid Plexus, 120 min, anaesthetised",1.79±0.10
same,Target to cerebellum ratio,"histamine H3 receptor; Choroid Plexus, 120 min, conscious",2.66±0.11
same,Target to cerebellum ratio,"histamine H3 receptor; Hippocampus, 30 min, anaesthetised",1.08±0.03
same,Target to cerebellum ratio,"histamine H3 receptor; Hippocampus, 30 min, conscious",1.06±0.02
same,Target to cerebellum ratio,"histamine H3 receptor; Hippocampus, 120 min, anaesthetised",1.08±0.01
same,Target to cerebellum ratio,"histamine H3 receptor; Hippocampus, 120 min, conscious",1.10±0.02
same,Target to cerebellum ratio,"histamine H3 receptor; Hypothalamus, 30 min, anaesthetised",1.16±0.03
same,Target to cerebellum ratio,"histamine H3 receptor; Hypothalamus, 30 min, conscious",1.13±0.03
same,Target to cerebellum ratio,"histamine H3 receptor; Hypothalamus, 120 min, anaesthetised",1.18±0.03
same,Target to cerebellum ratio,"histamine H3 receptor; Hypothalamus, 120 min, conscious",1.18±0.02
same,Target to cerebellum ratio,"histamine H3 receptor; Medial Cortex, 30 min, anaesthetised",1.10±0.03
same,Target to cerebellum ratio,"histamine H3 receptor; Medial Cortex, 30 min, conscious",1.22±0.03
same,Target to cerebellum ratio,"histamine H3 receptor; Medial Cortex, 120 min, anaesthetised",1.12±0.02
same,Target to cerebellum ratio,"histamine H3 receptor; Medial Cortex, 120 min, conscious",1.21±0.02
same,Target to cerebellum ratio,"histamine H3 receptor; Nucleus Accumbens (Core), 30 min, anaesthetised",1.12±0.03
same,Target to cerebellum ratio,"histamine H3 receptor; Nucleus Accumbens (Core), 30 min, conscious",1.15±0.03
same,Target to cerebellum ratio,"histamine H3 receptor; Nucleus Accumbens (Core), 120 min, anaesthetised",1.24±0.04
same,Target to cerebellum ratio,"histamine H3 receptor; Nucleus Accumbens (Core), 120 min, conscious",1.36±0.03
same,Target to cerebellum ratio,"histamine H3 receptor; Nucleus Accumbens (Shell), 30 min, anaesthetised",1.12±0.02
same,Target to cerebellum ratio,"histamine H3 receptor; Nucleus Accumbens (Shell), 30 min, conscious",1.17±0.06
same,Target to cerebellum ratio,"histamine H3 receptor; Nucleus Accumbens (Shell), 120 min, anaesthetised",1.24±0.04
same,Target to cerebellum ratio,"histamine H3 receptor; Nucleus Accumbens (Shell), 120 min, conscious",1.33±0.05
same,Target to cerebellum ratio,"histamine H3 receptor; Posterior Cortex, 30 min, anaesthetised",1.08±0.03
same,Target to cerebellum ratio,"histamine H3 receptor; Posterior Cortex, 30 min, conscious",1.18±0.03
same,Target to cerebellum ratio,"histamine H3 receptor; Posterior Cortex, 120 min, anaesthetised",1.13±0.03
same,Target to cerebellum ratio,"histamine H3 receptor; Posterior Cortex, 120 min, conscious",1.26±0.02
same,Target to cerebellum ratio,"histamine H3 receptor; Substantia Nigra, 30 min, anaesthetised",1.19±0.03
same,Target to cerebellum ratio,"histamine H3 receptor; Substantia Nigra, 30 min, conscious",1.10±0.02
same,Target to cerebellum ratio,"histamine H3 receptor; Substantia Nigra, 120 min, anaesthetised",1.26±0.04
same,Target to cerebellum ratio,"histamine H3 receptor; Substantia Nigra, 120 min, conscious",1.26±0.03
same,Target to cerebellum ratio,"histamine H3 receptor; Thalamus, 30 min, anaesthetised",1.10±0.03
same,Target to cerebellum ratio,"histamine H3 receptor; Thalamus, 30 min, conscious",1.11±0.02
same,Target to cerebellum ratio,"histamine H3 receptor; Thalamus, 120 min, anaesthetised",1.09±0.02
same,Target to cerebellum ratio,"histamine H3 receptor; Thalamus, 120 min, conscious",1.08±0.02
same,ratio of specific to non-specific binding,"histamine H3 receptor; all brain ROIs, conscious and anaesthetised rats",less than 1.4
